Measurements: PubChem BioAssay (NCI)
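These data come from cells grown in 96-well plates and exposed to compound for 48 hours at five concentrations. Here, GI50 denotes the concentration required for 50% inhibition of growth. TGI: total growth inhibition.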

Key:
Test in all cases: growth of human tumour cells (NCI), 48 h
786-0 renal = system: 786-0 renal
CCRF-CEM leukemia = system: CCRF-CEM leukemia
MALME-3M melanoma = system: MALME-3M melanoma
NCI-H460 lung = system: NCI-H460 lung
NCI-H522 lung = system: NCI-H522 lung
OVCAR-4 ovarian = system: OVCAR-4 ovarian
RXF 393 renal = system: RXF 393 renal
SF-268 CNS = system: SF-268 CNS
SK-MEL-28 melanoma = system: SK-MEL-28 melanoma
SN12C renal = system: SN12C renal
SNB-19 CNS = system: SNB-19 CNS
SNB-75 CNS = system: SNB-75 CNS
HS 578T breast = system: HS 578T breast
PC-3 prostate = system: PC-3 prostate
HOP-92 NSCLC = system: HOP-92 NSCLC
SR leukemia = system: SR leukemia

Compound | TGI (786-0 renal) [µM] | TGI (CCRF-CEM leukemia) [µM] | TGI (MALME-3M melanoma) [µM] | TGI (NCI-H460 lung) [µM] | TGI (NCI-H522 lung) [µM] | TGI (OVCAR-4 ovarian) [µM] | GI50 (RXF 393 renal) [µM] | TGI (RXF 393 renal) [µM] | TGI (SF-268 CNS) [µM] | TGI (SK-MEL-28 melanoma) [µM] | TGI (SN12C renal) [µM] | TGI (SNB-19 CNS) [µM] | TGI (SNB-75 CNS) [µM] | TGI (HS 578T breast) [µM] | TGI (PC-3 prostate) [µM] | TGI (HOP-92 NSCLC) [µM] | TGI (SR leukemia) [µM]
CC(=O)[CH-]C(=O)c1ccccc1.CC(=O)[CH-]C(=O)c1ccccc1.CC[C@H](CCC(C)[C@H]1CCC2[C@@H]3CC=C4C[C@@H]([O-])CC[C@]4(C)C3CC[C@@]21C)C(C)C.CC[C@H](CCC(C)[C@H]1CCC2[C@@H]3CC=C4C[C@@H]([O-])CC[C@]4(C)C3CC[C@@]21C)C(C)C.Cl.[Ti+4] (stereo not given in full) | > 25 | > 25 | > 25 | > 25 | > 25 | > 25 | > 25 | > 25 | > 25 | > 25 | > 25 | > 25 | > 25 | – | – | – | –
C=CCc1cc(OC)c(O)c(C(=O)/C=C/c2ccc(OC)c(OC)c2)c1 | 35.9 | 56.4 | 37 | > 100 | 7.08 | 34.9 | – | – | 53.1 | 33.6 | – | 30.5 | 59.3 | – | – | – | –
O=S(=O)(Cc1ccccc1)c1nnc(S(=O)(=O)c2ccc(Cl)cc2)s1 | 49.5 | – | – | 48.2 | 30.8 | > 100 | – | 33.8 | 63.4 | 44 | 46.7 | 60.2 | 32.5 | 39.8 | 46.7 | – | –
Cc1cc(N(CCC#N)CCC#N)ccc1/C(Sc1ccccc1)=C(\NC(=O)/C=C/c1ccccc1)C(=O)Sc1ccccc1 | 8.8 | 15.3 | 25 | 23.4 | 1.82 | 18.6 | – | 4.5 | 3.81 | 18.5 | 7.29 | 38.2 | 17.7 | – | – | 15 | > 31.5
c1ccc(C2(c3cc4ccccc4[nH]3)OCCO2)nc1 | > 100 | > 100 | > 100 | > 100 | – | > 100 | – | > 100 | > 100 | > 100 | – | > 100 | > 100 | > 100 | > 100 | > 100 | –
C#CCC(O)c1ccc(OC)c(OCc2ccccc2)c1 (stereo not given) | > 100 | > 100 | > 100 | > 100 | > 100 | > 100 | – | > 100 | > 100 | > 100 | > 100 | > 100 | 78.4 | > 100 | > 100 | > 100 | –
S=c1[nH]nc(COc2ccc(Cl)cc2)n1-c1ccccc1 | > 100 | > 100 | > 100 | > 100 | 23.3 | > 100 | – | > 100 | > 100 | > 100 | > 100 | > 100 | > 100 | – | > 100 | > 100 | –
COC(=O)c1ccccc1C1CN=NC12Cc1cc3c(cc1C2=O)CCC3 (stereo not given) | > 100 | > 100 | > 100 | > 100 | > 100 | > 100 | – | > 100 | > 100 | > 100 | > 100 | > 100 | > 100 | > 100 | > 100 | > 100 | –
[N-]=[N+]=NC1(Cc2ccccc2)C(=O)Nc2ccccc2C1=O (stereo not given) | > 100 | > 100 | > 100 | > 100 | > 100 | > 100 | – | – | > 100 | > 100 | > 100 | > 100 | > 100 | – | – | > 100 | > 100
C=C1[C@@H](OC(C)=O)/C=C/C2C3C(=O)[C@@](C)(OC(C)=O)[C@H]([C@H](OC(C)=O)[C@]4(O)[C@@H](C)C(=O)O[C@H]4[C@H]1Cl)[C@@]23C (stereo not given in full) | > 100 | > 100 | > 100 | > 100 | > 100 | > 100 | – | > 100 | > 100 | > 100 | > 100 | > 100 | > 100 | > 100 | > 100 | > 100 | –
CN(C)CCNc1ncnc2nc(-c3ccccc3)c(-c3ccccc3)nc12 | > 100 | > 100 | > 100 | – | > 100 | – | – | > 100 | > 100 | > 100 | > 100 | – | > 100 | > 100 | > 100 | – | –
Cc1cc2c(cc1Cl)SC(NNC(=O)c1ccccc1)=NS2(=O)=O | > 10 | > 10 | > 10 | > 10 | > 10 | > 10 | – | > 10 | > 10 | > 10 | > 10 | > 10 | > 10 | > 10 | > 10 | – | –
O=C1NC(=S)NC(=O)C1=Cc1ccc([N+](=O)[O-])o1 | 36.5 | 73.6 | 28.4 | > 100 | 35.1 | 31.1 | – | 38.3 | > 100 | 47.7 | 29.8 | > 100 | 31.6 | – | – | 36.3 | 43.9
Cc1ccc(NC(=O)CC(=O)N2N=C(N(c3ccccc3)c3ccccc3)CC2c2ccccc2)cc1 (stereo not given) | > 100 | > 100 | – | > 100 | > 100 | > 100 | – | > 100 | > 100 | > 100 | – | > 100 | > 100 | 86 | > 100 | > 100 | –
CCCN(CCCC(NC(C)=O)C(=O)NCc1ccccc1)C(=O)N(C)N=O (stereo not given) | > 100 | > 100 | > 100 | > 100 | > 100 | > 100 | – | > 100 | > 100 | > 100 | > 100 | – | > 100 | – | – | > 100 | –
O=C(c1ccc(Cl)c(Cl)c1)N(C(=S)OC12CC3CC(CC(C3)C1)C2)c1ccccc1 | > 100 | > 100 | > 100 | > 100 | 41.7 | > 100 | – | > 100 | > 100 | > 100 | > 100 | > 100 | > 100 | > 100 | > 100 | > 100 | –

Compound | TGI (786-0 renal) [µM] | TGI (CCRF-CEM leukemia) [µM] | TGI (MALME-3M melanoma) [µM] | TGI (NCI-H460 lung) [µM] | TGI (NCI-H522 lung) [µM] | TGI (OVCAR-4 ovarian) [µM] | GI50 (RXF 393 renal) [µM] | TGI (RXF 393 renal) [µM] | TGI (SF-268 CNS) [µM] | TGI (SK-MEL-28 melanoma) [µM] | TGI (SN12C renal) [µM] | TGI (SNB-19 CNS) [µM] | TGI (SNB-75 CNS) [µM] | TGI (HS 578T breast) [µM] | TGI (PC-3 prostate) [µM] | TGI (HOP-92 NSCLC) [µM] | TGI (SR leukemia) [µM]
Cc1c(N)c(C#N)c2n(C)c3ncccc3n2c1=O | > 100 | > 100 | > 100 | > 100 | > 100 | > 100 | – | > 100 | > 100 | > 100 | > 100 | > 100 | > 100 | – | – | > 100 | > 100
CN1C(=O)C(O)CC1c1ccccc1F (stereo not given) | > 100 | > 100 | > 100 | > 100 | > 100 | > 100 | – | > 100 | – | > 100 | > 100 | > 100 | > 100 | – | > 100 | > 100 | > 100
NN/C(=N\S(=O)(=O)c1cc(S(=O)(=O)c2ccccc2)cs1)Nc1ccc(Cl)cc1 | > 100 | 69.2 | – | 56.6 | 41.3 | 66.5 | – | 53.9 | 89 | > 100 | > 100 | > 100 | 67.2 | – | 69.7 | > 100 | 48.5
CN(C)/C=N/c1cc(=O)n(C)c(=O)n1C | > 100 | > 100 | > 100 | > 100 | > 100 | > 100 | – | > 100 | > 100 | > 100 | > 100 | > 100 | > 100 | > 100 | > 100 | > 100 | –
CC1=CP(=O)(OC(C)C)C=C(C)C1=C(Cl)Cl (stereo not given) | > 100 | > 100 | > 100 | > 100 | 9.03 | > 100 | – | > 100 | > 100 | > 100 | > 100 | > 100 | > 100 | – | – | 54.6 | > 100
CC(=O)c1ccc(NC(=O)C(=O)CC(=O)c2sc(-n3nc(-c4ccccc4)cc3-c3ccccc3)nc2C)cc1 | > 100 | > 100 | > 100 | > 100 | > 100 | > 100 | – | > 100 | > 100 | – | > 100 | > 100 | – | – | – | – | > 100
CC(=O)Nc1ccc2cc(C#N)c(=O)[nH]c2n1 | > 100 | – | > 100 | > 100 | > 100 | > 100 | – | > 100 | > 100 | > 100 | > 100 | > 100 | > 100 | – | > 100 | > 100 | –
CC(=O)OC1CCn2c1nc1c2C(=O)C=C(N2CC2)C1=O (stereo not given) | 0.557 | 1.17 | 0.0872 | 5.96 | 0.124 | 0.231 | – | 0.241 | 0.784 | 0.147 | 1.86 | 10.8 | 0.479 | – | 2.52 | 1.83 | 0.346
CC12CCC(=O)N1[C@@H](c1ccccc1)[C@@H](c1ccccc1)O2 (stereo not given in full) | > 100 | > 100 | > 100 | > 100 | > 100 | > 100 | – | – | > 100 | – | > 100 | > 100 | > 100 | – | – | > 100 | –
CC(=O)OC[C@@]1(C)[C@@H]2[C@@H]3[C@@]4(CO[C@]3(C)C(=O)[C@@]3(OC(C)=O)C[C@H](C)[C@H](OC(C)=O)[C@@H]3[C@H]4OC(C)=O)[C@H](OC(=O)c3ccccc3)C[C@@H]21 | > 100 | > 100 | > 100 | > 100 | > 100 | > 100 | – | > 100 | > 100 | > 100 | > 100 | > 100 | > 100 | > 100 | > 100 | > 100 | –
COc1ccc(/C=N/NS(=O)(=O)c2ccc(/C=C3\NC(=O)NC3=O)cc2)cc1 | > 100 | > 100 | > 100 | > 100 | – | > 100 | – | > 100 | 86.9 | > 100 | > 100 | > 100 | 77.9 | > 100 | > 100 | > 100 | –
COc1cc2c(cc1OC)C1CN3CCCC3C(O)C1c1cc(OC)c(OC)cc1-2 (stereo not given) | > 100 | > 100 | > 100 | > 100 | > 100 | > 100 | – | > 100 | > 100 | > 100 | > 100 | > 100 | – | > 100 | – | > 100 | > 100
COc1ccc(NCc2cccc3c(=O)c4ccc(Cl)cc4oc23)cc1 | > 100 | > 100 | > 100 | – | > 100 | > 100 | – | – | – | > 100 | > 100 | – | > 100 | – | > 100 | > 100 | > 100
Cn1c(=O)oc2cc(C(O)CN3CCN(Cc4ccc5c(c4)OCO5)CC3)ccc21 (stereo not given) | > 100 | > 100 | > 100 | > 100 | > 100 | > 100 | – | > 100 | > 100 | > 100 | > 100 | > 100 | > 100 | – | > 100 | > 100 | > 100
C#CCNCC(=O)O | > 100 | > 100 | > 100 | – | > 100 | > 100 | – | > 100 | > 100 | > 100 | – | > 100 | – | > 100 | > 100 | > 100 | –
